IC50 data for 19 compounds are collected here from US9359339B2, “Glucagon receptor antagonist compounds, compositions containing such compounds and methods of use” (Merck Sharp & Dohme Corp., priority 2009, dated 2016).

The structures appear in SMILES notation.

Sequence of human glucagon receptor (P47871 26-477): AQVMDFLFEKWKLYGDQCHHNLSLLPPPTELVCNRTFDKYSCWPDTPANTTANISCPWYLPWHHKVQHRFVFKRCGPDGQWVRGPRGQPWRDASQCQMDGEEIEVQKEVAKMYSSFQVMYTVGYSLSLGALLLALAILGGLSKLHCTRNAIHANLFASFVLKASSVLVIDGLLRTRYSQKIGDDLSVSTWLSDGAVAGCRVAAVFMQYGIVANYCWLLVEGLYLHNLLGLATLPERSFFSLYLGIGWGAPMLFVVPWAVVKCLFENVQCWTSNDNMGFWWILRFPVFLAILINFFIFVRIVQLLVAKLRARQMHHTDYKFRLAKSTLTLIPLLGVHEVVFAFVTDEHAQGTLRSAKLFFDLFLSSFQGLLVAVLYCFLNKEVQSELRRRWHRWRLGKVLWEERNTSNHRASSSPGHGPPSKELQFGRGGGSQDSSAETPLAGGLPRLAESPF

The target of this experiment is human glucagon receptor (Homo sapiens (Human), UniProt P47871). Nature of the experiment: Glucagon Receptor Binding Assay (125I-glucagon SPA, CHO cell membranes). Particulars: inhibition of 125I-Glucagon binding to membranes of CHO cells expressing cloned human glucagon receptor; more active isomer. How it is done:
Glucagon Receptor Binding Assay
A stable CHO (Chinese hamster ovary) cell line expressing cloned human glucagon receptor was maintained as described (Chicchi, et. al. J Biol Chem 272, 7765-9 (1997); Cascieri, et. al. J Biol Chem 274, 8694-7 (1999)). To determine antagonistic binding affinity of compounds, 0.001-0.003 mg of cell membranes from these cells were pre-incubated with 0.100 mg WGA-coated PVT SPA beads (Amersham) for 20 minutes at room temperature in 25 μL of a buffer containing 50 mM Tris-HCl (pH 7.5), 5 mM MgCl2, 2 mM EDTA, 0.1% BSA and 3% glycerol in Costar 384 well plates with clear bottoms (#3706). Next, 25 μL of ^125I-Glucagon (New England Nuclear, MA) (1×10^−14 mol per well) and either 1 μL solutions of test compounds or 0.001 mM unlabeled glucagon or DMSO were added and mixed. After 4-12 hours incubation at room temperature, the radioactivity bound to the cell membranes was determined in a radioactive emission detection counter (Wallac-Microbeta). Data were analyzed using the Data Analyzer software program of Merck & Co., Inc. The IC50 values were calculated using non-linear regression analysis assuming single-site competition.
For the compound `CCC[C@H](c1ccc(C(=O)NCCC(=O)O)cc1)C(c1ccc(Cl)cc1)c1csc2c(C#N)cc(Cl)cc12` (stereo partly drawn) [Example 1, N-(4-{(1S)-1-[(5-CHLORO-7-CYANO-1-BENZOTHIEN-3-YL)(4-CHLOROPHENYL)METHYL]BUTYL}BENZOYL)-β-ALANINE], the IC50 was 6.2 nM.

As to `CCCC[C@H](c1ccc(C(=O)NCCC(=O)O)cc1)C(c1ccc(Cl)cc1)c1csc2c(-c3ccnn3C)cc(F)cc12` (stereo partly drawn) [Example 2, N-[4-((1S)-1-{(4-CHLOROPHENYL)[5-FLUORO-7-(1-METHYL-1H-PYRAZOL-5-YL)-1-BENZOTHIEN-3-YL]METHYL}PENTYL)BENZOYL]-β-ALANINE], the IC50 came to 4.7 nM.

The compound `CCC[C@H](c1ccc(C(=O)Nc2nnn[nH]2)cc1)C(c1ccc(Cl)cc1)c1csc2c(Br)cc(C)cc12` (stereo partly drawn) [Example 3, 4-{(1S)-1-[(7-BROMO-5-METHYL-1-BENZOTHIEN-3-YL)(4-CHLOROPHENYL)METHYL]BUTYL}-N-1H-TETRAZOL-5-YLBENZAMIDE] registered an IC50 of 2.3 nM.

`CCC[C@H](c1ccc(C(=O)NCc2nn[nH]n2)cc1)C(c1ccc(Cl)cc1)c1csc2c(Br)cc(C)cc12` (stereo partly drawn) [Example 4, 4-{(1S)-1-[(7-BROMO-5-METHYL-1-BENZOTHIEN-3-YL)(4-CHLOROPHENYL)METHYL]BUTYL}-N-(2H-TETRAZOL-5-YLMETHYL)BENZAMIDE]: the IC50 was found to be 2.5 nM.

In turn, `CCC[C@H](c1ccc(C(=O)NCCC(=O)O)cc1)C(c1ccc(Cl)cc1)c1csc2c(C)cc(Cl)cc12` (stereo partly drawn) [Example 6, N-(4-{(1S)-1-[(5-CHLORO-7-METHYL-1-BENZOTHIEN-3-YL)(4-CHLOROPHENYL)METHYL]BUTYL}BENZOYL)-β-ALANINE] came in with an IC50 of 28 nM.

Compound `CCC[C@H](c1ccc(C(=O)NCCC(=O)O)cc1)C(c1ccc(Cl)cc1)c1c(C)sc2ccccc12` (stereo partly drawn) [Example 8, N-(4-{(1S)-1-[(2-METHYL-1-BENZOTHIEN-3-YL)(4-CHLOROPHENYL)METHYL]BUTYL}BENZOYL)-β-ALANINE] came in with an IC50 of 2.2 nM.

Take `CCC[C@H](c1ccc(C(=O)NCCC(=O)O)cc1)C(c1ccc(Cl)cc1)c1csc2c(C#N)cc(F)cc12` (stereo partly drawn) [Example 13, N-(4-{(1S)-1-[(5-FLUORO-7-CYANO-1-BENZOTHIEN-3-YL)(4-CHLOROPHENYL)METHYL]BUTYL}BENZOYL)-β-ALANINE]: the IC50 was 1.1 nM.

In the case of `CCC[C@H](c1ccc(C(=O)NCCC(=O)O)cc1)C(c1ccc(Cl)cc1)c1csc2c(C#N)cc(C)cc12` (stereo partly drawn) [Example 14, N-(4-{(1S)-1-[(5-METHYL-7-CYANO-1-BENZOTHIEN-3-YL)(4-CHLOROPHENYL)METHYL]BUTYL}BENZOYL)-β-ALANINE], the IC50 came out at 1.3 nM.

Compound `CCC[C@H](c1ccc(C(=O)NCCC(=O)O)cc1)C(c1ccc(Cl)cc1)c1csc2c(C#N)cc(C(F)(F)F)cc12` (stereo partly drawn) [Example 15, N-(4-{(1S)-1-[(5-TRIFLUOROMETHYL-7-CYANO-1-BENZOTHIEN-3-YL)(4-CHLOROPHENYL)METHYL]BUTYL}BENZOYL)-β-ALANINE] displayed an IC50 of 1.7 nM.

In the case of `CCC[C@H](c1ccc(C(=O)NCCC(=O)O)cc1)C(c1ccc(Cl)cc1)c1c(C)sc2c(C#N)cc(Cl)cc12` (stereo partly drawn) [Example 19, N-(4-{(1S)-1-[(2-METHYL-5-CHLORO-7-CYANO-1-BENZOTHIEN-3-YL)(4-CHLOROPHENYL)METHYL]BUTYL}BENZOYL)-β-ALANINE], the IC50 turned out to be 7.8 nM.

On to `CCC[C@H](c1ccc(C(=O)NCCC(=O)O)cc1)C(c1ccc(Cl)c(Cl)c1)c1csc2c(C#N)cc(Cl)cc12` (stereo partly drawn) [Example 21, N-(4-{(1S)-1-[(5-CHLORO-7-CYANO-1-BENZOTHIEN-3-YL)(3,4-DICHLOROPHENYL)METHYL]BUTYL}BENZOYL)-β-ALANINE], for which the IC50 was 0.7 nM.

Compound `CCC[C@H](c1ccc(C(=O)NCCC(=O)O)cc1)C(c1ccc(OC(F)(F)F)cc1)c1csc2c(C#N)cc(C)cc12` (stereo partly drawn) [Example 23, N-(4-{(1S)-1-[(5-METHYL-7-CYANO-1-BENZOTHIEN-3-YL)(4-TRIFLUOROMETHOXYPHENYL)METHYL]BUTYL}BENZOYL)-β-ALANINE] came in with an IC50 of 0.2 nM.

In turn, `CCC[C@H](c1ccc(C(=O)NCCC(=O)O)cc1)C(c1ccc(OC(F)(F)F)cc1)c1csc2c(C#N)cc(Cl)cc12` (stereo partly drawn) [Example 25, N-(4-{(1S)-1-[(5-CHLORO-7-CYANO-1-BENZOTHIEN-3-YL)(4-TRIFLUOROMETHOXYPHENYL)METHYL]BUTYL}BENZOYL)-β-ALANINE] showed an IC50 of 0.1 nM.

In the case of `N#Cc1cc(Cl)cc2c(C(c3ccc(Cl)cc3)[C@H](CCC(F)(F)F)c3ccc(C(=O)NCCC(=O)O)cc3)csc12` (stereo partly drawn) [Example 27, N-(4-{(1S)-1-[(5-CHLORO-7-CYANO-1-BENZOTHIEN-3-YL)(4-CHLOROPHENYL)METHYL]-4,4,4-TRIFLUOROBUTYL}BENZOYL)-β-ALANINE], the IC50 came out at 0.2 nM.

Take `CCCC[C@H](c1ccc(C(=O)NCCC(=O)O)cc1)C(c1ccc(Cl)cc1)c1csc2c(C#N)cc(Cl)cc12` (stereo partly drawn) [Example 29, N-(4-{(1S)-1-[(5-CHLORO-7-CYANO-1-BENZOTHIEN-3-YL)(4-CHLOROPHENYL)METHYL]PENTYL}BENZOYL)-β-ALANINE]: the IC50 stood at 0.4 nM.

`CCCC[C@H](c1ccc(C(=O)NCCC(=O)O)cc1)C(c1ccc(Cl)cc1)c1csc2c(C#N)cc(Cl)cc12` (stereo partly drawn) [Example 32, N-(4-{(1S)-1-[(5-CHLORO-7-CYANO-1-BENZOTHIEN-3-YL)(4-CHLOROPHENYL)METHYL]-4-METHYLBUTYL}BENZOYL)-β-ALANINE] showed an IC50 of 1 nM.

For the compound `CCC[C@H](c1ccc(C(=O)NCC(F)(F)C(=O)O)cc1)C(c1ccc(Cl)cc1)c1csc2c(Br)cc(C)cc12` (stereo partly drawn) [Example 40, 3-[(4-{(1S)-1-[(5-METHYL-7-BROMO-1-BENZOTHIOPHEN-3-YL)(4-CHLOROPHENYL)METHYL]BUTYL}BENZOYL)AMINO]-2,2-DIFLUOROPROPANOIC ACID], the IC50 is 11.8 nM.

On to `CCC[C@H](c1ccc(C(=O)NCCS(=O)(=O)O)cc1)C(c1ccc(Cl)cc1)c1csc2c(Br)cc(C)cc12` (stereo partly drawn) [Example 43, 2-[(4-{(1S)-1-[(5-METHYL-7-BROMO-1-BENZOTHIOPHEN-3-YL)(4-CHLOROPHENYL)METHYL]BUTYL}BENZOYL)AMINO]ETHANE SULFONIC ACID], for which the IC50 stood at 3.4 nM.

For the compound `CCC[C@H](c1ccc(C(=O)NCCC(=O)O)cc1)C(c1ccc(Cl)cc1)c1sc2ccccc2c1C` (stereo partly drawn) [Example 45, N-[4-((1S)-1-{(4-CHLOROPHENYL)[3-METHYL-1-BENZOTHIEN-2-YL]METHYL}BUTYL)BENZOYL]-β-ALANINE], the IC50 came to 1.8 nM.

Broadly, the IC50 is the concentration at which inhibition is half-maximal. Read a high IC50 as weaker potency in that assay.
